Calls of active or inactive are those of the source. The calls are words filed in the database; no cut-off is given here.
Experiments:
Type in all cases: functional
[1] = Cytotoxicity against human HO8910 cells assessed as growth inhibition at 100 ug/ml after 24 hrs by MTT assay; conditions: HO-8910, 24 h, read-out: GI
[2] = Cytotoxicity against human HO8910 cells assessed as growth inhibition at 1 ug/ml after 24 hrs by MTT assay; conditions: HO-8910, 24 h, read-out: GI
KB [3] = assay: Cytotoxicity against human KB cells assessed as growth inhibition at 100 ug/ml after 24 hrs by MTT assay; conditions: read-out: GI
KB [4] = assay: Cytotoxicity against human KB cells assessed as growth inhibition at 10 ug/ml after 24 hrs by MTT assay; conditions: read-out: GI
KB [5] = assay: Cytotoxicity against human KB cells assessed as growth inhibition at 1 ug/ml after 24 hrs by MTT assay; conditions: read-out: GI
Bel-7402 [6] = assay: Cytotoxicity against human Bel7402 cells assessed as growth inhibition at 100 ug/ml after 24 hrs by MTT assay; conditions: Bel-7402, 24 h, read-out: GI
Bel-7402 [7] = assay: Cytotoxicity against human Bel7402 cells assessed as growth inhibition at 10 ug/ml after 24 hrs by MTT assay; conditions: Bel-7402, 24 h, read-out: GI
Bel-7402 [8] = assay: Cytotoxicity against human Bel7402 cells assessed as growth inhibition at 0.1 ug/ml after 24 hrs by MTT assay; conditions: Bel-7402, 24 h, read-out: GI
PC-3 [9] = assay: Cytotoxicity against human PC3 cells assessed as growth inhibition at 100 ug/ml after 24 hrs by MTT assay; conditions: PC-3, 24 h, read-out: GI
PC-3 [10] = assay: Cytotoxicity against human PC3 cells assessed as growth inhibition at 10 ug/ml after 24 hrs by MTT assay; conditions: for inhibition of growth at 10 µg/mL: PC-3, 24 h, read-out: GI
PC-3 [11] = assay: Cytotoxicity against human PC3 cells assessed as growth inhibition at 1 ug/ml after 24 hrs by MTT assay; conditions: for inhibition of growth at 1 µg/mL: PC-3, 24 h, read-out: GI
PC-3 [12] = assay: Cytotoxicity against human PC3 cells assessed as growth inhibition at 0.1 ug/ml after 24 hrs by MTT assay; conditions: for inhibition of growth at 0.1 µg/mL: PC-3, 24 h, read-out: GI
NCI-H460 [13] = assay: Cytotoxicity against human NCI-H460 cells assessed as growth inhibition at 100 ug/ml after 24 hrs by MTT assay; conditions: NCI-H460, 24 h, read-out: GI
NCI-H460 [14] = assay: Cytotoxicity against human NCI-H460 cells assessed as growth inhibition at 1 ug/ml after 24 hrs by MTT assay; conditions: NCI-H460, 24 h, read-out: GI
NCI-H460 [15] = assay: Cytotoxicity against human NCI-H460 cells assessed as growth inhibition at 0.1 ug/ml after 24 hrs by MTT assay; conditions: NCI-H460, 24 h, read-out: GI
[16] = Cytotoxicity against human HO8910 cells assessed as growth inhibition at 0.1 ug/ml after 24 hrs by MTT assay; conditions: HO-8910, 24 h, read-out: GI
Bel-7402 [17] = assay: Cytotoxicity against human Bel7402 cells assessed as growth inhibition at 1 ug/ml after 24 hrs by MTT assay; conditions: Bel-7402, 24 h, read-out: GI
NCI-H460 [18] = assay: Cytotoxicity against human NCI-H460 cells assessed as growth inhibition at 10 ug/ml after 24 hrs by MTT assay; conditions: NCI-H460, 24 h, read-out: GI
[19] = Cytotoxicity against human HO8910 cells assessed as growth inhibition at 10 ug/ml after 24 hrs by MTT assay; conditions: HO-8910, 24 h, read-out: GI
KB [20] = assay: Cytotoxicity against human KB cells assessed as growth inhibition at 0.1 ug/ml after 24 hrs by MTT assay; conditions: read-out: GI

Row | Compound | inhibition of growth at 100 µg/mL [1] [%] | inhibition of growth at 1 µg/mL [2] [%] | inhibition of growth at 100 µg/mL (KB [3]) [%] | inhibition of growth at 10 µg/mL (KB [4]) [%] | inhibition of growth at 1 µg/mL (KB [5]) [%] | inhibition of growth at 100 µg/mL (Bel-7402 [6]) [%] | inhibition of growth at 10 µg/mL (Bel-7402 [7]) [%] | inhibition of growth at 0.1 µg/mL (Bel-7402 [8]) [%] | inhibition of growth at 100 µg/mL (PC-3 [9]) [%] | inhibition of growth at 10 µg/mL (PC-3 [10]) [%] | inhibition of growth at 1 µg/mL (PC-3 [11]) [%] | inhibition of growth at 0.1 µg/mL (PC-3 [12]) [%] | inhibition of growth at 100 µg/mL (NCI-H460 [13]) [%] | inhibition of growth at 1 µg/mL (NCI-H460 [14]) [%] | inhibition of growth at 0.1 µg/mL (NCI-H460 [15]) [%] | inhibition of growth at 0.1 µg/mL [16] [%] | inhibition of growth at 1 µg/mL (Bel-7402 [17]) [%] | inhibition of growth at 10 µg/mL (NCI-H460 [18]) [%] | inhibition of growth at 10 µg/mL [19] [%] | inhibition of growth at 0.1 µg/mL (KB [20]) [%] | also measured
1 | O=C(O)CCCCC(CCSC(=O)c1ccccc1)SC(=O)c1ccccc1 (stereo unspecified) | 86.7 | 0.29 | 89.8 | 2.68 | 0.68 | 81 | 2.76 | 1.09 | 91.2 | 7.43 | 9.86 | 9.54 | 72.8 | 0.77 |  |  |  |  |  |  | 
2 | O=C(CCCCC(S)CCS)Nc1ccc([N+](=O)[O-])c(C(F)(F)F)c1 (stereo unspecified) | 92.7 | 1.17 | 95.5 | 4.04 | 10.2 | 91.7 |  | 6.54 | 79.9 | 45.5 | 1.08 | 8.06 | 95.8 | 6.29 | 3.2 | 1.95 | 0.68 | 0.97 |  |  | 
3 | O=C(CCCC[C@@H]1CCSS1)Nc1ccc([N+](=O)[O-])c(C(F)(F)F)c1 | 39.2 |  | 49.1 |  |  | 43.4 |  |  | 59 |  |  |  | 35.4 |  |  |  |  |  |  |  | growth inhibition (GI) (PC-3 [10]): inactive; growth inhibition (GI) (PC-3 [11]): inactive; growth inhibition (GI) (PC-3 [12]): inactive
4 | O=C(CCCCC1CCSS1)Nc1ccc(Cl)cc1 (stereo unspecified) | 74.8 |  | 83.1 | 21.7 | 18.6 | 76.4 | 7.01 | 3.37 | 41.2 | 14.7 | 13.7 | 18.9 | 68.7 | 10.9 | 13 |  | 0.64 | 18.3 | 0.75 | 16.4 | 
5 | O=C(CCCCC1CCSS1)Nc1ccc(F)cc1 (stereo unspecified) | 78.1 | 5.82 | 85.4 | 4.44 | 4.05 | 74.5 | 1.92 |  | 80.8 | 13.8 | 14.5 | 15.6 | 64.5 | 11.4 | 15.6 | 6.59 | 1.79 | 18.8 | 3.89 | 11.3 | 
6 | O=C(CCCCC(S)CCS)Nc1ccc(Cl)cn1 (stereo unspecified) | 71.2 |  | 76.5 | 21.6 |  | 50.7 | 17.8 |  | 32.4 | 10.8 | 0.89 |  | 55.8 |  |  | 2.65 | 2.34 | 27.4 | 21.9 |  | growth inhibition (GI) (PC-3 [12]): inactive
7 | O=C(CCCCC1CCSS1)Nc1ccc([N+](=O)[O-])c(C(F)(F)F)c1 (stereo unspecified) | 47.6 | 0.96 | 49.5 |  |  | 23.9 |  | 5.04 | 90.2 |  |  | 5.37 | 51.6 | 19.1 | 18.8 |  | 7.46 | 12 |  | 4.5 | growth inhibition (GI) (PC-3 [10]): inactive; growth inhibition (GI) (PC-3 [11]): inactive
8 | O=C(CCCCC1CCSS1)Nc1cccc(Cl)c1 (stereo unspecified) | 68.3 |  | 76.5 | 7.88 |  | 68.2 | 4.15 | 0.33 | 79.5 | 13.8 | 8.44 | 17.1 | 65.2 | 8.85 | 6.08 |  | 1.11 | 10.1 |  | 2.85 | 
9 | Cc1cccc(NC(=O)CCCCC2CCSS2)c1 (stereo unspecified) | 62.7 | 4.54 | 68 | 4.13 | 5.2 | 49.9 | 9.01 | 9.88 | 75.1 | 9.57 | 9.98 | 2.13 | 52.9 | 7.82 | 7.97 | 3.68 | 10.3 | 4.15 |  | 4.29 | 
10 | O=C(CCCCC(S)CCS)Nc1ccc(OC(F)(F)F)cc1 (stereo unspecified) | 66.8 | 0.56 | 73.3 | 15 | 6 | 49.7 | 14.2 |  | 75.5 | 42.5 | 12.6 | 14.9 | 65.1 | 19.1 | 17.2 |  | 7.32 | 29.2 | 6.11 | 7.27 | 
11 | O=C(CCCCC1CCSS1)Nc1ccc([N+](=O)[O-])cc1 (stereo unspecified) | 64.5 | 0.33 | 71.3 | 14.4 |  | 52.6 | 4.83 |  | 79.6 | 6.67 | 19.9 | 13.9 | 56.7 | 7.45 | 11.9 |  |  | 22.7 | 0.61 | 0.22 | 
12 | O=C(CCCC[C@H]1CCSS1)Nc1ccc([N+](=O)[O-])c(C(F)(F)F)c1 | 92.3 |  | 95.8 |  |  | 94 |  |  | 79.8 |  |  |  | 92.2 |  |  | 1.06 |  |  |  |  | growth inhibition (GI) (PC-3 [10]): inactive; growth inhibition (GI) (PC-3 [11]): inactive; growth inhibition (GI) (PC-3 [12]): inactive
13 | O=C(CCCCC1CCSS1)Nc1cccc(C(F)(F)F)c1 (stereo unspecified) | 74.8 | 4.76 | 80 | 10.9 | 9.5 | 61.9 | 4.43 |  | 88.7 | 38.5 | 8.44 | 6.27 | 68.8 | 4.39 |  | 5 |  | 6.77 | 5.99 | 0.33 | 
14 | CC(=O)SCCC(CCCCC(=O)Nc1ccc(Cl)cc1)SC(C)=O (stereo unspecified) | 58.8 | 0.35 | 72 | 18.1 | 14.8 | 45.5 | 5.78 | 9.96 |  |  |  |  | 47.3 | 15.4 | 9.89 | 1.81 | 3.07 | 14.8 | 1.47 | 11.4 | 
